One series has as its system MOLT-4. Kind of series: NCI-60 SRB screen. Particulars: Homo sapiens; MOLT-4, 10^–5 Molar; read-out: Percent growth inhibition. The series is classed as cell-based.
A further series concerns M14. Put plainly: NCI-60 SRB screen. The format is cell-based. Particulars: Homo sapiens; M14, 10^–5 Molar; read-out: Percent growth inhibition. A digest of the protocol: (§1)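 After a 24 h pre-incubation, the cells received test compound at a single 10^−5 M dose and were incubated a further 48 h. Endpoint was SRB dye binding.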
The next series concerns SK-OV-3. Put plainly: NCI-60 SRB screen. The series is classed as cell-based. Particulars: Homo sapiens; SK-OV-3, 10^–5 Molar; read-out: Percent growth inhibition.
Series [1] has as its system 60 human cancer cell lines. Put plainly: NCI-60 SRB screen, whole panel. The format is cell-based. Particulars: for activity at 10 µM / LC50 / GI50 / inhibition at 10 µM: Homo sapiens; for activity at 10 µM: 48 h, One Dose Mean Graph, Conc 1.00E-5 Molar, read-out: Mean Growth Percent; for LC50 / Log10 TGI _MID: mean over panel, Units Molar; for LC50: read-out: Log10 LC50 _MID (converted); for GI50: mean over the cell line panel (_MID), Molar, read-out: Mean Log10 GI50 (converted).

The next series relates to SK-MEL-2. Put plainly: NCI-60 SRB screen. The note with it: Homo sapiens; SK-MEL-2, 10^–5 Molar; read-out: Percent growth inhibition. The format is cell-based. A digest of the protocol: as §1
The next series concerns OVCAR-3. Put plainly: NCI-60 SRB screen. The format is cell-based. The note with it: Homo sapiens; OVCAR-3, 10^–5 Molar; read-out: Percent growth inhibition.
For a further series, the system named is TK-10. Kind of series: NCI-60 SRB screen. The series is classed as cell-based. The note with it: Homo sapiens; TK-10, 10^–5 Molar; read-out: Percent growth inhibition.
The next series has as its system HL-60(TB). Kind of series: NCI-60 SRB screen. The series is classed as cell-based. Particulars: Homo sapiens, 10^–5 Molar, read-out: Percent growth inhibition.
A further series has as its system RPMI-8226. Kind of series: NCI-60 SRB screen. The series is classed as cell-based. The note with it: Homo sapiens; RPMI-8226, 10^–5 Molar; read-out: Percent growth inhibition.
The test system of a further series is COLO 205. Put plainly: NCI-60 SRB screen. The format is cell-based. The note with it: Homo sapiens, 48 h; COLO 205, 10^–5 Molar; read-out: Percent growth inhibition.
A further series deals with HT29. Kind of series: NCI-60 SRB screen. The series is classed as cell-based. Particulars: Homo sapiens, HT-29; HT29, 10^–5 Molar; read-out: Percent growth inhibition.
The subject of another series is DU-145. Kind of series: NCI-60 SRB screen. The series is classed as cell-based. The note with it: Homo sapiens; DU-145, 10^–5 Molar; read-out: Percent growth inhibition.
A further series concerns the target T1, topoisomerase IIα (Homo sapiens, UniProt P11388).
T1 construct: purchased MBS2885049
Kind of series: Topoisomerase ELISA kit inhibitory assay. The series is classed as biochemical. Particulars: four concentrations. On the procedure:
Four concentrations were used and IC50 was calculated.
Compound 3a,b,c,e were evaluated for topoisomerase IIα inhibitory activity utilizing the human DNA topoisomerase ELISA kit (MBS2885049) and following the provided procedure: • Standards and the tested compound were dissolved in sample diluent and tenfold serial dilution was achieved. • Biotin-conjugated antibody and avidin conjugated Horseradish Peroxidase (HRP-avidin) were diluted to tenfolds. • 100 µL of each concentration of standard or test compounds were added to each well and incubated at 37 °C for 1 h. • Removal of the liquid in each well was done. • To each well 100 µL of Biotin-conjugated antibody solution was added followed by incubation for 1 h at 37 °C. • The microtiter plate was allowed to aspirate and washed 3 times. • 100 µL of avidin conjugated Horseradish Peroxidase (HRP-avidin) solution was added to each well and incubatation for 1 h at 37 °C was achieved. • The plate was aspirated and washed 5 times. • Addition of 90 µL of 3,3′,5,5′-tetramethylbenzidine (TMB) substrate to each well followed by plate incubated for 30 min at 37 °C and protection from light was done. • 50 µL stop solution was added.
For orientation: ELISA stands for enzyme-linked immunosorbent assay.

The test system of a further series is leukemia SR cells. Kind of series: Apoptosis, Annexin-V-FITC/PI.
The next series concerns UACC-257. Kind of series: NCI-60 SRB screen. The format is cell-based. The note with it: Homo sapiens; UACC-257, 10^–5 Molar; read-out: Percent growth inhibition.
[2] abbreviates: single dose 10^–5 M, 60 cell lines, read-out: mean percent growth inhibition.

SMILES strings stand for the structures. Read-outs that look alike come from different tables or passages of the source. Some results are limits rather than exact numbers.

Consider 10 molecules from PMC10940605, “Design, synthesis and in vitro anticancer activity of some new lomefloxacin derivatives” (Scientific Reports, 2024).

T1 sequence (P11388 whole entry): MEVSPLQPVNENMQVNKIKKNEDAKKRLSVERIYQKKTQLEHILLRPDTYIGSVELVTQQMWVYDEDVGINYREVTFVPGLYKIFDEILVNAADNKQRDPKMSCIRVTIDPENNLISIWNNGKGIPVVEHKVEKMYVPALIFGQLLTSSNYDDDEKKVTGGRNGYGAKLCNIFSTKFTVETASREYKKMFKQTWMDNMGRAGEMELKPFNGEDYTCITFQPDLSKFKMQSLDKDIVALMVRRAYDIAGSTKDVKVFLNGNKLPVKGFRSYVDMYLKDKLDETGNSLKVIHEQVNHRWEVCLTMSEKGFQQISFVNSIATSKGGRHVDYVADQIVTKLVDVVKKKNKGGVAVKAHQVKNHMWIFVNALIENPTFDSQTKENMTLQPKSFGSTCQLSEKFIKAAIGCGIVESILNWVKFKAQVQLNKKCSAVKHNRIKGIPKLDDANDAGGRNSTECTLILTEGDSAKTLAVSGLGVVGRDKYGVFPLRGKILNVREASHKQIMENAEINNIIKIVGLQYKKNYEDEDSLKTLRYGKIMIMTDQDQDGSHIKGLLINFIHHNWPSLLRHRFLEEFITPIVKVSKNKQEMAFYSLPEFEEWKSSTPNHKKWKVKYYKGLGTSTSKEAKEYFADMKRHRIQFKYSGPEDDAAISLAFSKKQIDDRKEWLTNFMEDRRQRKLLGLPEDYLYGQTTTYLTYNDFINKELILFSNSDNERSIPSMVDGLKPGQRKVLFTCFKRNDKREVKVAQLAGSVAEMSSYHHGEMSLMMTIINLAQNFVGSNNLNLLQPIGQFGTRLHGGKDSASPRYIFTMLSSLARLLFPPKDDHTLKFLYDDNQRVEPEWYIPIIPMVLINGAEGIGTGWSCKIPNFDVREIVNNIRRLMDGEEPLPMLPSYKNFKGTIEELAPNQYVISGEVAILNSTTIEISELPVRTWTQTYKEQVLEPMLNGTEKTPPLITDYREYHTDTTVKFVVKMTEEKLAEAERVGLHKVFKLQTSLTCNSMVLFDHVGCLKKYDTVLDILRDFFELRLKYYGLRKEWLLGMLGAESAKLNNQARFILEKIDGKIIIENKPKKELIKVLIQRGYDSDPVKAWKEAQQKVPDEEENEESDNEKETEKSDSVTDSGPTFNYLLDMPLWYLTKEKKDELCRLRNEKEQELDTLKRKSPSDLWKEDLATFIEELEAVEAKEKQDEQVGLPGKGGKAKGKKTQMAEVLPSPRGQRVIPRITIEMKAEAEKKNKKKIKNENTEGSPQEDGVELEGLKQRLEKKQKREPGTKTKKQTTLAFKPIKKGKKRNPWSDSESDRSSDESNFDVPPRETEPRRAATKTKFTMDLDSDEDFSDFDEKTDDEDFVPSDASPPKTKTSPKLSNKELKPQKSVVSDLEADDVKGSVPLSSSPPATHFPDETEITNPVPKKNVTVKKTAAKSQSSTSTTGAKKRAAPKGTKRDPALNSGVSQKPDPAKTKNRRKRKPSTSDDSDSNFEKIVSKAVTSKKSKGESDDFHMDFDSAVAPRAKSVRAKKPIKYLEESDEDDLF

One may read the inhibition as the change of the read-out against control, counted positive when it falls. What is called melting point is the temperature, or range, at which the solid turns liquid. Molecule `CCn1cc(C(=O)O)c(=O)c2cc(F)c(N3CCN(CC(=O)Nc4ccc(Cl)cc4)C(C)C3)c(F)c21` (centres unmarked) [Compound 5b, 7-(4-(2-((4-Chlorophenyl)amino)-2-oxoethyl)-3-methylpiperazin-1-yl)-1-ethyl-6,8-difluoro-4-oxo-1,4-dihydroquinoline-3-carboxylic acid] had a melting point of 218 to 220 °C. Besides, in the series with MOLT-4, the inhibition at 10 µM was determined as 1%. In addition, the inhibition at 10 µM with M14 was determined as 2.06%. Further, in the series on SK-OV-3, the inhibition at 10 µM turned out to be 9.6%. Further, the activity at 10 µM in [1] was 94.6%.
`CCn1cc(C(=O)O)c(=O)c2cc(F)c(N3CCN(C(=O)c4ccccc4)C(C)C3)c(F)c21` (centres unmarked) [Compound 7a, 7-(4-Benzoyl-3-methylpiperazin-1-yl)-1-ethyl-6,8-difluoro-4-oxo-1,4-dihydroquinoline-3-carboxylic acid] had a melting point of 290 to 292 °C. In addition, the inhibition at 10 µM in the series with M14 is 9.98%. Moreover, the inhibition at 10 µM with SK-MEL-2 worked out at 0.16%. In the series on OVCAR-3, the inhibition at 10 µM came out at 3.69%. The inhibition at 10 µM in the series on TK-10 was determined as 13%. For the same molecule, the activity at 10 µM in [1] worked out at 93.5%.
A word on the LC50: it is the concentration lethal to half of the exposed cells or organisms. The term GI50 denotes the concentration that inhibits growth by half. Usually IC50 stands for the point on the concentration scale where inhibition reaches its midpoint. A high value points to lower potency. As to `CCn1cc(C(=O)NN=Cc2ccc(Br)cc2)c(=O)c2cc(F)c(N3CCNC(C)C3)c(F)c21` (centres unmarked) [Compound 3c, N'-(4-Bromobenzylidene)-1-ethyl-6,8-difluoro-7-(3-methylpiperazin-1-yl)-4-oxo-1,4-dihydroquinoline-3-carbohydrazide], the inhibition at 10 µM in the series on HL-60(TB) worked out at 51.3%; in the series on MOLT-4 it was 78%; in the series on RPMI-8226, 115%; with M14 it was 57.3%; in the series on SK-MEL-2 it was 2.32%; with COLO 205, 67.9%. Further, the inhibition at 10 µM in the series with HT29 was 132%; in the series on OVCAR-3, 47.1%; in the series with TK-10 it was 0.41%; with DU-145, 68.6%; in [1] (setting [2]) it was more than 47%. For the same molecule, in [1], the activity at 10 µM was 51.9%. Further, the LC50 in [1] is 7.24 µM. The GI50 in series [1] was 1.74 µM. Besides, the “Log10 TGI _MID” value in series [1] was -5.46. Also, the IC50 against topoisomerase IIα came out at 1.68 µM.
As for `CCn1cc(C(=O)NN=Cc2cccs2)c(=O)c2cc(F)c(N3CCNC(C)C3)c(F)c21` (centres unmarked) [Compound 3e, 1-Ethyl-6,8-difluoro-7-(3-methylpiperazin-1-yl)-4-oxo-N'-(thiophen-2-ylmethylene)-1,4-dihydroquinoline-3-carbohydrazide], the inhibition at 10 µM in the series with MOLT-4 was found to be 24.9%; in the series on RPMI-8226, 137%; with M14 it was 50.6%; in the series on COLO 205, 142%; in the series with HT29 it was 177%; in the series on OVCAR-3 it was 31.3%. The inhibition at 10 µM in the series on SK-OV-3 was 9.74%; with TK-10 it was 16.1%; with DU-145 it was 51.7%; in [1] (setting [2]), more than 47%. Also, the activity at 10 µM in series [1] turned out to be 52.6%. In series [1], the LC50 is 7.24 µM. Also, the concentration for 50% growth inhibition (GI50) in [1] was 1.82 µM. Also, in series [1], the “Log10 TGI _MID” value was -5.44. At topoisomerase IIα, this molecule had an IC50 of 0.98 µM. Also, in the series with leukemia SR cells, the “late apoptosis elevation vs control” value is recorded as 27.16 folds. Besides, in the series with leukemia SR cells (3e at 1.90 µM, 24 h), the “Apoptosis %Early” value is recorded as 5.27%. Moreover, the “Apoptosis %Late” value in the series on leukemia SR cells (3e at 1.90 µM, 24 h) is given as 18.20%. Further, the “Apoptosis %Total” value in the series on leukemia SR cells (3e at 1.90 µM, 24 h) came out at 26.19%. In addition, the Necrosis in the series on leukemia SR cells (3e at 1.90 µM, 24 h) was determined as 2.72%.
For the molecule `CCn1cc(C(=O)NN=Cc2cccnc2)c(=O)c2cc(F)c(N3CCNC(C)C3)c(F)c21` (centres unmarked) [Compound 3d, 1-Ethyl-6,8-difluoro-7-(3-methylpiperazin-1-yl)-4-oxo-N'-(pyridin-3-ylmethylene)-1,4-dihydroquinoline-3-carbohydrazide], the melting point was in the range of 241 to 243 °C. Moreover, the inhibition at 10 µM in the series with HL-60(TB) came to 30.5%. Also, the inhibition at 10 µM in the series on MOLT-4 came to 65.6%. In the series with RPMI-8226, the inhibition at 10 µM is 13.4%. For the same molecule, in the series on M14, the inhibition at 10 µM turned out to be 10.3%. Moreover, the inhibition at 10 µM in the series on SK-MEL-2 is 44.1%. Moreover, in the series on COLO 205, the inhibition at 10 µM came to 46.8%. In addition, the inhibition at 10 µM with HT29 was 56.3%. Besides, the inhibition at 10 µM in the series on UACC-257 stood at 1.56%. Besides, the inhibition at 10 µM in the series on OVCAR-3 is 59.8%. The inhibition at 10 µM in the series on SK-OV-3 turned out to be 16.2%. The inhibition at 10 µM in the series with TK-10 was 29%. In addition, in the series on DU-145, the inhibition at 10 µM was 57.5%. Moreover, the activity at 10 µM in [1] turned out to be 53.2%.
`CCn1cc(C(=O)O)c(=O)c2cc(F)c(N3CCN(C(=O)c4ccc(Cl)cc4)C(C)C3)c(F)c21` (centres unmarked) [Compound 7c, 7-(4-(4-Chlorobenzoyl)-3-methylpiperazin-1-yl)-1-ethyl-6,8-difluoro-4-oxo-1,4-dihydroquinoline-3-carboxylic acid]: the melting point was in the range of 282 to 284 °C. Besides, the inhibition at 10 µM with SK-OV-3 was determined as 2.14%. Moreover, the activity at 10 µM in series [1] was 97.7%.
As to `CCn1cc(C(=O)NN=Cc2cccc(F)c2)c(=O)c2cc(F)c(N3CCNC(C)C3)c(F)c21` (centres unmarked) [Compound 3b, 1-Ethyl-6,8-difluoro-N′-(3-fluorobenzylidene)-7-(3-methylpiperazin-1-yl)-4-oxo-1,4-dihydroquinoline-3-carbohydrazide], the inhibition at 10 µM with HL-60(TB) worked out at 34.5%; in the series on MOLT-4, 126%; with RPMI-8226, 142%; with M14 it was 107%; with COLO 205, 82.5%; in the series with HT29, 187%. For the same molecule, the inhibition at 10 µM with UACC-257 was 11%; in the series on OVCAR-3, 183%; with DU-145, 188%; in series [1] (setting [2]) it was more than 47%. Further, the activity at 10 µM in series [1] came out at 11.2%. The LC50 in series [1] is 6.61 µM. Moreover, the GI50 in [1] was 1.7 µM. Besides, the “Log10 TGI _MID” value in series [1] is reported as -5.47. For the same molecule, at topoisomerase IIα, inhibition was half-maximal at 2.41 µM (IC50).
On to `CCn1cc(C(=O)O)c(=O)c2cc(F)c(N3CCN(CC(=O)Nc4ccccc4)C(C)C3)c(F)c21` (centres unmarked) [Compound 5a, 1-Ethyl-6,8-difluoro-7-(3-methyl-4-(2-oxo-2-(phenylamino)ethyl)piperazin-1-yl)-4-oxo-1,4-dihydroquinoline-3-carboxylic acid], for which the melting point was 248 to 250 °C. Further, the inhibition at 10 µM in the series on SK-OV-3 was determined as 9.27%. In addition, the activity at 10 µM in series [1] was found to be 97.2%.
In the case of `CCn1cc(C(=O)O)c(=O)c2cc(F)c(N3CCN(C(=O)c4ccc([N+](=O)[O-])cc4)C(C)C3)c(F)c21` (centres unmarked) [Compound 7d, 1-Ethyl-6,8-difluoro-7-(3-methyl-4-(4-nitrobenzoyl)piperazin-1-yl)-4-oxo-1,4-dihydroquinoline-3-carboxylic acid], the melting point fell in the range of 215 to 217 °C. For the same molecule, the inhibition at 10 µM in the series on HL-60(TB) was determined as 24.7%. Further, in series [1], the activity at 10 µM worked out at 97.3%. The inhibition at 10 µM in series [1] (prostate and renal cancer cell lines, 10^−5 M, read-out: percent inhibition) lay in the range of 12 to 27.2%.
Molecule `CCn1cc(C(=O)O)c(=O)c2cc(F)c(N3CCN(C(=O)c4ccc(Br)cc4)C(C)C3)c(F)c21` (centres unmarked) [Compound 7b, 7-(4-(4-Bromobenzoyl)-3-methylpiperazin-1-yl)-1-ethyl-6,8-difluoro-4-oxo-1,4-dihydroquinoline-3-carboxylic acid] showed a melting point of 271 to 273 °C. Moreover, the inhibition at 10 µM with SK-OV-3 stood at 1.83%. Moreover, in series [1], the activity at 10 µM was 98.8%.
